# Earlier results as cited in patent US20250066691A1, “SOLVENT-BASED DETERGENT COMPOSITIONS AND METHODS FOR HYDROPHOBIC SOIL REMOVAL” (ECOLAB USA INC., priority 2023, published 2025).
# Counter-ions that a name gives are not always drawn.
# Conditions: obtained from PubChem
LogP,Topological Polar Surface Area (Å^2),Compound
2.5,29.5 Å^2,CCCCC(CC)COCCO (stereo not shown) [2-2(2-Ethylhexyloxy)ethanol]
3,46.5 Å^2,"CCCCC(CC)COC(=O)[C@H](C)O (stereo partly drawn) [2-Ethylhexyl Lactate, 2-Ethylhexyl L-Lactate]"
,20.2 Å^2,OCc1ccccc1 [Benzyl Alcohol]
,38.7 Å^2,CCCCCCOCCOCCO [Diethylene glycol monohexyl ether]
3.2,52.6 Å^2,CC(C)COC(=O)CCCCC(=O)OCC(C)C [Diisobutyl Adipate]
5.1,20.2 Å^2,"CCCCCCCCCCCCO [Dodecanol (Lauryl Alcohol), Dodecanol]"
0.2,46.5 Å^2,CCOC(=O)C(C)O (stereo not shown) [Ethyl Lactate]
0.2,78.9 Å^2,CC(=O)OCC(COC(C)=O)OC(C)=O [Glycerol Triacetate]
,20.2 Å^2,CCCCCCO [Hexanol]
,37.3 Å^2,CCCCCCCC(=O)O [Octanoic acid]
1.7,38.7 Å^2,CC(O)COc1ccccc1 (stereo not shown) [Propylene glycol phenyl ether]
0.1,99.1 Å^2,CCOC(=O)CC(O)(CC(=O)OCC)C(=O)OCC [Triethyl Citrate]
2.9,47.9 Å^2,CCCCOC(C)COC(C)COC(C)CO (stereo not shown) [Tripropylene glycol butyl ether]

Compound,LogP,Topological Polar Surface Area (Å^2)
C=C(C)[C@H]1CC=C(C)CC1 [Limonene],3.4,0 Å^2
Cc1ccccc1 [Toluene],,0 Å^2
